The subject of data set [1] is anesthetized dog. Particulars: in vivo, iv. As to the method: (§1) The following describes an in vivo assay for measuring the relative effect of test compounds on hypogastric nerve stimulation-induced increases in intraurethral pressure and phenylephrine-induced increases in diastolic blood pressure in anesthetized dog.
(§2) Mongrel dogs (10 to 20 kg) were fasted for 12 to 18 hours and anesthetized with pentobarbital sodium (35 mg/kg, i.v.). An endotracheal tube was inserted and thereafter the lungs were mechanically ventilated with room air. The right femoral vein was isolated and cannulated with two polyethylene cannulae, one for the administration of a continuous infusion of pentobarbital sodium (5 to 10 mg/kg/hr) and the other for bolus administration of test substances. The right femoral artery was isolated and cannulated to the abdominal aorta with a fluid filled polyethylene cannula connected to an external pressure transducer for monitoring diastolic aortic pressure (DAP). The bladder was exposed via a ventral midline abdominal incision and emptied of urine through a 22 gauge needle. The bladder was cannulated through a stab incision with a water filled balloon catheter connected to an external pressure transducer for monitoring prostatic intraurethral pressure (IUP). The right hypogastric nerve (HGN) was carefully isolated and attached to a Dastre's electrode for nerve stimulation. […]

Data set [2] concerns α1-adrenoceptor. Particulars: relative to human isolated arterial smooth muscle; agonist norepinephrine.
Source text: (§3) The following describes in vitro assays for measuring the relative effect of test compounds on α1-adrenoceptor mediated contractions of human, isolated arterial and urinary bladder smooth muscle.
Human prostatic and bladder neck smooth muscle tissue was obtained following radical cystoprostatectomies or radical prostatectomies and immediately immersed in Krebs' solution. The prostatic and bladder tissue was dissected free from extraneous tissue and then strips of tissue 0.8 to 1.2 cm in length and 3 to 5 mm in width were cut and suspended vertically in 10 ml tissue baths and bathed in Kreb's solution maintained at 37°C and constantly aerated with a 95% O2 and 5% CO2 gas mixture. A resting tension of 0.75 to 1 g was applied to each muscle strip and thereafter periodically readjusted to maintain a 1 g resting tension throughout the duration of the assay. […]
(§4) The tissue was then exposed to solution free of norepinephrine, replacing the solution twice every 5 minutes for 30 minutes. After baseline tension was established and readjusted to 1 g, the tissue was exposed to bath solution containing the test compound, replacing the solution every 15 minutes for 60 minutes. […]
(§5) The concentration ratio (CR) of norepinephrine necessary to produce equiactive responses in the absence and presence of the test compound was determined. […]
The test system of data set [3] is α1-adrenoceptor. Particulars: relative to rabbit isolated urinary bladder smooth muscle; agonist norepinephrine.
Source text: The following describes in vitro assays for measuring the relative effect of test compounds on α1-adrenoceptor mediated contraction of rat, isolated aortic smooth muscle and rabbit, isolated urinary bladder smooth muscle.
Thoracic aorta were isolated from rats and immediately immersed in Krebs' solution (comprising in mM concentrations: NaCl, 118.5; NaHCO3, 25; dextrose, 5; KCl, 4.8; CaCl2, 2.5; MgSO4, 1.2; KH2PO4, 1.2; cocaine, 0.03; corticosterone, 0.03; propranolol, 0.001; ascorbic acid, 0.1; and indomethacin, 0.01). The aortas were dissected free from extraneous tissue and then a cross sectional ring approximately 3 mm in length was cut from the most proximal segment. […] A resting tension of 1 g was applied to each aortic ring and thereafter periodically readjusted to maintain a 1 g resting tension throughout the duration of the assay. […]
The tissue was then exposed to solution free of agonist, replacing the solution twice every 5 minutes for 30 minutes. After baseline tension was established and readjusted to 1 g, the tissue was exposed to bath solution containing the test compound, replacing the solution every 15 minutes for 60 minutes. […]
The concentration ratio (CR) of agonist necessary to produce equiactive responses in the absence and presence of the test compound was determined. […]
For data set [4], the system named is anesthetized dog. Kind of data set: Dog in vivo intraurethral pressure assay (hypogastric nerve stimulation). Particulars: i.v., increasing doses, relative to DAP. As for the experimental part:
as §1, §2

Data set [5] relates to α1-adrenoceptor. To be noted: relative to human prostatic/bladder neck smooth muscle; agonist norepinephrine.
Procedure: as §3
Human arterial blood vessels were obtained post-mortem and immediately immersed in cold physiological saline solution. Within 24 hours of removal the isolated arterial tissue was placed in Krebs' solution (comprising in mM concentrations: NaCl, 118.5; NaHCO3, 25; dextrose, 5; KCl, 4.8; CaCl2, 2.5; MgSO4, 1.2; KH2PO4, 1.2; cocaine, 0.03; corticosterone, 0.03; propranolol, 0.001; ascorbic acid, 0.1; and indomethacin, 0.01). The arteries were dissected free from extraneous tissue and then cut into cross sectional rings approximately 3 mm in length. […] A resting tension of 1 to 1.5 g was applied to each ring and thereafter periodically readjusted to maintain a 1 g resting tension throughout the duration of the assay. […]
as §4, §5

Consider `COc1cc2nc(N3CCN(C(=O)c4ccco4)CC3)nc(N)c2cc1OC` [prazosin], for which, in the data set with anesthetized dog [1], the “inhibition of phenylephrine-induced increases in DAP” value is “inhibited increases in IUP and DAP in a similar fashion”. For the same compound, the “inhibition of α1-adrenoceptor mediated contractions of human, isolated prostatic and bladder neck smooth muscle” value with α1-adrenoceptor [2] is “non-selectively inhibited”. In addition, the “inhibition of α1-adrenoceptor mediated contractions of rat, isolated aortic smooth muscle” value in the data set with α1-adrenoceptor [3] is listed as “selectively inhibited”. Also, in the data set with anesthetized dog [4], the “inhibition of HGN stimulation-induced increases in IUP” value was “inhibited increases in IUP and DAP in a similar fashion”. The “inhibition of α1-adrenoceptor mediated contractions of human, isolated arterial smooth muscle” value in the data set with α1-adrenoceptor [5] is “non-selectively inhibited”.

The values are drawn from patent EP0748800A2, “Pyrimidinedione, pyrimidinetrione, triazinedione, tetrahydroquinazolinedione derivatives as alpha-1-adrenergic receptor antagonists” (priority 1995, dated 1996).
